The values that follow are results of earlier work, collected in patent publication US9125814B2, “Biocompatible crosslinked hydrogels, drug-loaded hydrogels and methods of using the same” (Angiotech Pharmaceuticals, Inc., priority 2008, dated 2015).

With `CCCCN1CCCCC1C(=O)Nc1c(C)cccc1C` (racemic) [racemic bupivacaine, 1-butyl-N-(2,6-dimethylphenyl)piperidine-2-carboxamide], the pKa is on record as ~8.1.

By pKa is commonly meant the negative logarithm of the acid dissociation constant.
